# In patent US20040097439A9, “Isolated polynucleotides having a reduced or an increased content of epigenetic control motifs and uses thereof” (priority 1999, published 2004):
# Tested on: histone deacetylases
# Test: Relief of repressed LacZ transgenes in cleavage stage embryos by inhibitors of histone deacetylases
# Format: cell-based, mouse
# Conditions: for proportion of β-gal+ embryos after NaB treatment: repressed paternal transgene; for release from repression of LacZ transgenes in treated embryos: DCR6 and DCR7 2-cell embryos, NaB 2.5 mM or TSA 66 nM for 24 h
# Description: One-cell embryos from different lines, carrying a transgene of maternal (A) or paternal (B) origin were recovered at 24 hphCG and allowed to develop in the absence (control) or presence of sodium butyrate (NaB; 2.5 mM) or trichostatin A (TSA; 66 nM) for 24 h. Aphidicolin, an inhibitor of DNA polymerases was used alone (Aph; 2 μg/ml) or in combination with sodium butyrate (Aph+NaB).
# It is becoming more and more evident that at least part of the transcriptional repression dependent on methylated CpG islands is mediated by histone deacetylation. […] To test whether this mechanism could be responsible for the non-permissive transcriptional state established during gametogenesis and inherited by the embryo, cleavage stage embryos were treated with the deacetylase inhibitors, sodium butyrate (NaB) and the trichostatin A (TSA), two inhibitors of histone deacetylases (Yoshida et al., 1995).
SMILES,"proportion of β-gal+ embryos after NaB treatment (DCR1 line, 3% β-gal+ in untreated embryos)","proportion of β-gal+ embryos after NaB treatment (DCR3 line, 18% β-gal+ in untreated embryos)","proportion of β-gal+ embryos after NaB treatment (DCR5 line, 0% β-gal+ in untreated embryos)",release from repression of LacZ transgenes in treated embryos
"CCCC(=O)[O-].[Na+] [NaB, sodium butyrate]",70%,100%,10%,release from repression
"CC(/C=C/C(=O)NO)=C\[C@@H](C)C(=O)c1ccc(N(C)C)cc1 [TSA, trichostatin A]",,,,release from repression
